Assay [1] has as its target T1, PS lipase activity of human lymphoblast cell lines (LCLs) (Homo sapiens, UniProt O95870).
T1 construct: PS lipase activity of membrane proteomes from indicated LCLs; endogenous in cells; host or cells: human lymphoblast cell lines (PHARC subject, relatives, controls), membrane proteome
In words: PS lipase activity of LCL membrane proteomes. As to conditions: proteomes pre-treated 1 μM, 30 min, 37° C. It counts as biochemical. The source says:
For part (a), Student's t-test: ** p<0.005 for PHARC LCL versus Control 1 or Control 2 LCLs.

For assay [2], the target named is T2, ABHD16A (Homo sapiens, UniProt O95870).
T2 sequence (O95870 1-558): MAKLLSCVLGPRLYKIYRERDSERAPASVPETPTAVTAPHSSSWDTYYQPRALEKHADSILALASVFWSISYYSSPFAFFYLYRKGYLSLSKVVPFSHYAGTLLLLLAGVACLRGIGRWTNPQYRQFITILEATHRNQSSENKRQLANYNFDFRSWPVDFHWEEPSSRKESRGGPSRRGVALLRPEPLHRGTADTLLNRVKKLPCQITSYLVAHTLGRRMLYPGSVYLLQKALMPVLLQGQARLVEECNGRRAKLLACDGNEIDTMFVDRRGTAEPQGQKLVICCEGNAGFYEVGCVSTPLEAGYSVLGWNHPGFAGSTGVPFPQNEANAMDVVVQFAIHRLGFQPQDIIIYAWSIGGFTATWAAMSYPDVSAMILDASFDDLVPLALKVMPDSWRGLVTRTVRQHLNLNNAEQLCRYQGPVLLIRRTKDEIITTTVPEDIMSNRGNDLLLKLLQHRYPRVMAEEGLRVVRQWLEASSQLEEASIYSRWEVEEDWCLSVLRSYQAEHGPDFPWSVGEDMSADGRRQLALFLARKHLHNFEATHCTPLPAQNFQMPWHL
In words: PS substrate assay, human ABHD16A-transfected HEK293T membrane proteome. It counts as biochemical. Also on record: transiently transfected with 12 μg of the full-length cDNA of human ABHD16A (Open Biosystems Catalog # MHS6278-202758315); host or cells: HEK293T, transient, pCMV-SPORT6. The procedure: HEK293T cells were grown to 40% confluence in a 15 cm dish in 25 mL of Dulbecco's modified Eagle medium (DMEM) supplemented with L-glutamine and 10% (vol/vol) FCS at 37° C. and 5% CO2 (vol/vol). The cells were transiently transfected with 12 μg of the full-length cDNA of human ABHD16A (Open Biosystems Catalog # MHS6278-202758315) or murine ABHD16A (Open Biosystems Catalog # MMM1013-202760516) in pCMV-SPORT6 vector using 40 μg polyethyleneimine “MAX” (MW 40,000) (PEI) (Polysciences Inc. Catalog #24765) as the transfection reagent as per manufacturer's instructions. As a “mock” control, an empty vector was transiently transfected. […] Protein concentration was measured using the Bio-Rad DC Protein Assay Kit as per manufacturer's protocol, and ABHD16A expression was confirmed using gel-based ABPP.
All the lipid species used in the lipid substrate hydrolysis assays were purchased from Avanti Polar Lipids Inc unless mentioned otherwise. […] All the data was collected and analyzed using the Agilent MassHunter Workstation software version B.04 using the Data Acquisition and Quantitative Analysis programs respectively. Measuring the area under the peak, and normalizing it to the internal standard quantified the product release for the lipid substrate hydrolysis assays. […] Some products from the substrate hydrolysis assays were detected in positive ion mode for qualitative identification. […]

As for `CCCCCCCCCCCCCC1OC(=O)/C1=C\CCCCC(N)=O` (centres unmarked) [KC01, (Z)-6-(2-oxo-4-tridecyloxetan-3-ylidene)hexanamide], in assay [1], the PS lipase activity entry is listed as “substantially reduced”. In assay [2], the midpoint of inhibition, the IC50, lay at 90 ± 20 nM.

(Values after patent US20170313669A1, “LACTONE COMPOUNDS AND METHODS OF MAKING AND USING SAME” (THE SCRIPPS RESEARCH INSTITUTE, priority 2015, published 2017).)
